The subject of one data set is HT-29. The experiment in a line: Antiproliferative activity against human HT-29 cells assessed as reduction in cell viability. It is filed as functional, cell-based.
A short description of data set [1]: Antiproliferative activity against human MRC5 cells assessed as reduction in cell viability. The class given is toxicity, cell-based.
In a further data set the test system is HCT-116. The data set can be described thus: Antiproliferative activity against human HCT-116 cells assessed as reduction in cell viability. As to conditions: Homo sapiens, HCT-116. It is filed as functional, cell-based.
The subject of data set [2] is MDA-MB-231. The experiment in a line: Antiproliferative activity against human MDA-MB-231 cells assessed as reduction in cell viability. It is filed as functional, cell-based.
For data set [3], the system named is MDA-MB-231. The data set can be described thus: Antiproliferative activity against human MDA-MB-231 cells. As to conditions: Homo sapiens, MDA-MB-231. It is filed as functional, cell-based.
A further data set relates to COLO 205. The data set can be described thus: Antiproliferative activity against human COLO 205 cells. It is filed as functional, cell-based.
Another data set deals with A549. The experiment in a line: Antiproliferative activity against human A549 cells. The class given is functional, cell-based.
The next data set deals with PC-3. The experiment in a line: Antiproliferative activity against human PC-3 cells. It is filed as functional, cell-based.
A further data set has as its system HEK293. The experiment in a line: Antiproliferative activity against human HEK293 cells. It is filed as functional, cell-based.
For a further data set, the system named is K562. The experiment in a line: Antiproliferative activity against human K562 cells. The class given is functional, cell-based.
For a further data set, the system named is A-431. The experiment in a line: Antiproliferative activity against human A-431 cells. It is filed as functional, cell-based.
The test system of a further data set is P388/ADR. The data set can be described thus: Antiproliferative activity against mouse P388/ADR cells assessed as reduction in cell viability measured after 72 hrs. The class given is functional, cell-based. As to conditions: time 72 hrs.
Data set [4] in a line: Antiproliferative activity against mouse P388 cells assessed as reduction in cell viability measured after 72 hrs. The class given is functional, cell-based. As to conditions: time 72 hrs.
The next data set has as its system HL-60. The data set can be described thus: Antiproliferative activity against human HL-60 cells assessed as reduction in cell viability measured after 72 hrs. The class given is functional, cell-based. As to conditions: HL-60, time 72 hrs.
Data set [5] is described as follows: Antiproliferative activity against human U-87 MG cells. The class given is functional, cell-based, U-87MG ATCC.
The next data set has as its system NCI-H460. The experiment in a line: Antiproliferative activity against human NCI-H460 cells. The class given is functional, cell-based.

The term IC50 denotes the concentration at which inhibition is half-maximal. As to `Cc1cc(=O)oc2c(OCc3cn(CCCO[C@@H]4O[C@@H]5O[C@@]6(C)CC[C@H]7[C@H](C)CC[C@@H]([C@H]4C)[C@@]57OO6)nn3)cccc12`, the 50% inhibitory concentration (IC50) (in the data set on HT-29; in data set [1]; in the data set with HCT-116; with MDA-MB-231 [2]) was 430 nM each time.

Take `Cc1cc(=O)oc2c(OCc3cn(CCO[C@@H]4O[C@@H]5O[C@@]6(C)CC[C@H]7[C@H](C)CC[C@@H]([C@H]4C)[C@@]57OO6)nn3)cccc12`: the IC50 (with HT-29; in data set [1]; in the data set on HCT-116; in the data set on MDA-MB-231 [2]) was 430 nM each time.

On to `C[C@H]1[C@@H](OCCn2cc(COc3cccc(O)c3)nn2)O[C@@H]2O[C@@]3(C)CC[C@H]4[C@H](C)CC[C@@H]1[C@@]24OO3`, for which the 50% inhibitory concentration (IC50) in the data set with MDA-MB-231 [3], in the data set on COLO 205, with A549, with PC-3, with HEK293 and in the data set on K562 was 18000 nM each time. For the same compound, the IC50 with A-431 worked out at 18000 nM.

As usually defined, the GI50 is the concentration at which growth is held to half of that of the control. On to `CC(C)N1CCN(C(=O)CCC(=O)O[C@@H]2O[C@@H]3O[C@]4(C)CC[C@H]5[C@H](C)CC[C@@H]([C@H]2C)[C@@]35OO4)CC1`, for which the GI50 (in the data set on P388/ADR; in data set [4]; in the data set on HL-60) was 231 nM in each case.

As to `CCN1CCN(C(=O)CCC(=O)O[C@@H]2O[C@@H]3O[C@]4(C)CC[C@H]5[C@H](C)CC[C@@H]([C@H]2C)[C@@]35OO4)CC1`, the GI50 (in the data set with P388/ADR; in data set [4]; in the data set with HL-60) was 231 nM in each case.

`CC(=O)c1ccccc1-n1cc(CO[C@H]2O[C@@H]3O[C@]4(C)OO[C@]35[C@@H](CC[C@@H](C)[C@@H]5C[C@H]4O)[C@H]2C)nn1`: the IC50 in the data set with MDA-MB-231 [3], with COLO 205, in the data set with A549, with PC-3, with HEK293 and in the data set with K562 was 25300 nM throughout. This compound showed a half-inhibitory concentration (IC50) in the data set on A-431 of 25300 nM.

Regarding `C[C@H]1[C@@H](OCc2cn(-c3ccc(C#N)cc3)nn2)O[C@@H]2O[C@]3(C)OO[C@]24[C@H]1CC[C@@H](C)[C@@H]4C[C@H]3O`, the IC50 in the data set with MDA-MB-231 [3], in the data set on COLO 205, with A549, in the data set on PC-3, with HEK293 and with K562 was 25300 nM throughout. For the same compound, in the data set with A-431, the midpoint of inhibition, the IC50, lay at 25300 nM.

Turning to `C[C@H]1[C@@H](OCCn2cc(COc3ccc(C=O)c(O)c3)nn2)O[C@@H]2O[C@@]3(C)CC[C@H]4[C@H](C)CC[C@@H]1[C@@]24OO3`, the 50% inhibitory concentration (IC50) in the data set on MDA-MB-231 [3], in the data set with COLO 205, in the data set with A549, in the data set on PC-3, in the data set with HEK293 and with K562 was 18000 nM in each case. Half-maximal inhibition in the data set with A-431 (IC50) required 18000 nM.

For `COc1cccc2c1C(=O)c1c(O)c3c(c(O)c1C2=O)C[C@@](O)(C(=O)CO)C[C@@H]3O[C@H]1C[C@H](N)[C@H](O)[C@H](C)O1` [DOXORUBICIN], the GI50 worked out at 3730 nM in the data set with P388/ADR, 8.7 nM in [4] and 8.7 nM in the data set on HL-60. For the same compound, the half-inhibitory concentration (IC50) in the data set with MDA-MB-231 [3] was determined as 1430 nM; in the data set with COLO 205, 1430 nM; with HT-29, 50 nM; in the data set on PC-3, 1430 nM; in the data set with HEK293, 1430 nM; with K562 it was 1430 nM. Moreover, the results for the IC50 with HCT-116, with MDA-MB-231 [2] and in the data set with A-431 were 50 nM, 50 nM and 1430 nM, respectively.

For `Cc1c(Cl)c(=O)oc2c(OCc3cn(CCCO[C@@H]4O[C@@H]5O[C@@]6(C)CC[C@H]7[C@H](C)CC[C@@H]([C@H]4C)[C@@]57OO6)nn3)cccc12`, the 50% inhibitory concentration (IC50) (in the data set on HT-29; in data set [1]; in the data set with HCT-116; in the data set with MDA-MB-231 [2]) was 430 nM in each case.

As to `C[C@H]1[C@@H](Oc2ccc(C(=O)N3CCN(c4ccccc4)CC3)cc2)O[C@@H]2O[C@@]3(C)CC[C@H]4[C@H](C)CC[C@@H]1[C@@]24OO3`, the GI50 (with P388/ADR; in data set [4]) was 22.1 nM in each case.

As for `C[C@H]1[C@@H](Oc2ccc(C(=O)N3CCN(C/C=C/c4ccccc4)CC3)cc2)O[C@@H]2O[C@@]3(C)CC[C@H]4[C@H](C)CC[C@@H]1[C@@]24OO3`, the GI50 (with P388/ADR; in [4]) was 22.1 nM in each case.

Regarding `Cc1c(C)c2cccc(OCc3cn(CCCO[C@@H]4O[C@@H]5O[C@@]6(C)CC[C@H]7[C@H](C)CC[C@@H]([C@H]4C)[C@@]57OO6)nn3)c2oc1=O`, the half-maximal inhibitory concentration (IC50) (in the data set with HT-29; in [1]; with HCT-116; in the data set with MDA-MB-231 [2]) was 430 nM each time.

Regarding `C[C@H]1[C@H](OCCn2cc(COc3cccc4c(C(F)(F)F)cc(=O)oc34)nn2)O[C@@H]2O[C@@]3(C)CC[C@H]4[C@H](C)CC[C@@H]1[C@@]24OO3`, the IC50 (in the data set with HT-29; in data set [1]; in the data set with HCT-116; with MDA-MB-231 [2]) was 430 nM throughout.

With `C[C@H]1[C@@H](Oc2ccc(C(=O)N3CCN(Cc4ccccc4)CC3)cc2)O[C@@H]2O[C@@]3(C)CC[C@H]4[C@H](C)CC[C@@H]1[C@@]24OO3`, the GI50 (in the data set on P388/ADR; in [4]) was 22.1 nM in each case.

Take `Cc1c(Cl)c(=O)oc2c(OCc3cn(CCO[C@@H]4O[C@@H]5O[C@@]6(C)CC[C@H]7[C@H](C)CC[C@@H]([C@H]4C)[C@@]57OO6)nn3)cccc12`: the half-inhibitory concentration (IC50) (in the data set on HT-29; in [1]; with HCT-116; with MDA-MB-231 [2]) was 430 nM in each case.

`Cc1c(C)c2cccc(OCc3cn(CCO[C@@H]4O[C@@H]5O[C@@]6(C)CC[C@H]7[C@H](C)CC[C@@H]([C@H]4C)[C@@]57OO6)nn3)c2oc1=O`: the IC50 (in the data set on HT-29; in data set [1]; in the data set with HCT-116; in the data set on MDA-MB-231 [2]) was 430 nM each time.

For `C[C@H]1[C@H](OCCCn2cc(COc3cccc4c(C(F)(F)F)cc(=O)oc34)nn2)O[C@@H]2O[C@@]3(C)CC[C@H]4[C@H](C)CC[C@@H]1[C@@]24OO3`, the IC50 (with HT-29; in data set [1]; in the data set on HCT-116; in the data set with MDA-MB-231 [2]) was 430 nM each time.

Regarding `CCOC(=O)c1cc2cccc(OCc3cn(CCCO[C@@H]4O[C@@H]5O[C@@]6(C)CC[C@H]7[C@H](C)CC[C@@H]([C@H]4C)[C@@]57OO6)nn3)c2oc1=O`, the IC50 (in the data set with HT-29; in data set [1]; with HCT-116; in the data set with MDA-MB-231 [2]) was 430 nM throughout.

As for `C[C@H]1[C@H](OCCOc2cccc(/C=C/S(=O)(=O)Nc3ccc(OC(F)(F)F)cc3)c2)O[C@@H]2O[C@@]3(C)CC[C@H]4[C@H](C)CC[C@@H]1[C@@]24OO3`, the IC50 (in data set [5]; with MDA-MB-231 [3]; in the data set with HT-29; with A549; in the data set with NCI-H460) was 50 nM each time.

Regarding `C[C@@H]1CC[C@H]2[C@@H](C)C(OCCOc3cccc(/C=C/S(=O)(=O)Nc4ccc(Cl)cc4)c3)O[C@@H]3O[C@@]4(C)CC[C@@H]1[C@]32OO4` (single isomer, unassigned), the IC50 (in data set [5]; with MDA-MB-231 [3]; in the data set on HT-29; in the data set with A549; in the data set with NCI-H460) was 50 nM each time.

For `C[C@H]1[C@H](OCCOc2cccc(/C=C/S(=O)(=O)Nc3ccccc3Cl)c2)O[C@@H]2O[C@@]3(C)CC[C@H]4[C@H](C)CC[C@@H]1[C@@]24OO3`, the IC50 (in [5]; in the data set with MDA-MB-231 [3]; in the data set with HT-29; with A549; with NCI-H460) was 50 nM in each case.

In the case of `C[C@H]1[C@H](OC(=O)CCC(=O)N2CCN(c3ccccc3)CC2)O[C@@H]2O[C@]3(C)CC[C@H]4[C@H](C)CC[C@@H]1[C@@]24OO3`, the GI50 (with P388/ADR; in data set [4]; in the data set with HL-60) was 231 nM in each case.

As for `C[C@H]1[C@H](OC(=O)CCC(=O)N2CCN(C)CC2)O[C@@H]2O[C@]3(C)CC[C@H]4[C@H](C)CC[C@@H]1[C@@]24OO3`, the GI50 (with P388/ADR; in [4]; with HL-60) was 231 nM throughout.

Consider `CCOC(=O)c1cc2cccc(OCc3cn(CCO[C@@H]4O[C@@H]5O[C@@]6(C)CC[C@H]7[C@H](C)CC[C@@H]([C@H]4C)[C@@]57OO6)nn3)c2oc1=O`, for which the IC50 (in the data set on HT-29; in data set [1]; in the data set on HCT-116; with MDA-MB-231 [2]) was 430 nM each time.

For `CC(=O)c1cccc(-n2cc(CO[C@H]3O[C@@H]4O[C@]5(C)OO[C@]46[C@@H](CC[C@@H](C)[C@@H]6C[C@H]5O)[C@H]3C)nn2)c1`, the IC50 in the data set with MDA-MB-231 [3], in the data set with COLO 205, with A549, with PC-3, with HEK293 and in the data set with K562 was 25300 nM in each case. The compound further displayed an IC50 in the data set with A-431 of 25300 nM.

As for `C[C@H]1[C@H](OCCOc2cccc(/C=C/S(=O)(=O)Nc3cccc(Cl)c3)c2)O[C@@H]2O[C@@]3(C)CC[C@H]4[C@H](C)CC[C@@H]1[C@@]24OO3`, the IC50 (in data set [5]; in the data set with MDA-MB-231 [3]; in the data set with HT-29; in the data set on A549; with NCI-H460) was 50 nM in each case.
